# Source: article PMC8354611, “Orientin mediates protection against MRSA-induced pneumonia by inhibiting Sortase A” (Virulence, 2021)
# Several values for one entry are separate records, joined by “and”; a condition that tells them apart may be missing. Equal entries are not always repeated. Marks after values point to notes of the source that are not given here.
# How the values were obtained:
# [1] = tested on: S. aureus internalization into A549 cells; assay: Invasion assay of S. aureus into A549 cells; assay type: cell-based; settings: S. aureus treated with 100 µM orientin, vs untreated WT, P < 0.001
# Procedure: The A549 cells were routinely sub-cultured at 37°C with 5% CO2. Cells in the logarithmic growth phase were seeded in a 24-well plate at a density of 2.5 × 10^5 per well and cultured for 20 h. S. aureus was mixed with orientin ranging from 0 to 100 µM and cultured at 37°C until an OD600 of 1.0 was reached. Then, the cell culture medium was discarded, and the cells were resuspended in DMEM medium. After that, a bacterial suspension containing 2 × 10^7 CFU/mL was added to each well. After incubation for 2 h, 300 µg/mL gentamicin was added to stop the invasion. Then, the cells were lysed after washing with sterile PBS and spread on BHI agar plates to calculate the number of colonies in each sample.
# [2] = tested on: S. aureus; assay: Pneumonia model experiment; assay type: in vivo, C57BL/6 J mice; settings: mice
# Procedure: The pneumonia model was induced as previously described in 7-week-old female C57BL/6 J mice. For survival experiments, a group of 10 mice was infected with 30 µL of S. aureus culture (2 × 10^8 CFUs) via the intranasal route. An hour after infection, the mice were intraperitoneally injected with orientin (100 mg/kg) at intervals of 12 h. Similarly, mice in the control group were injected with sterile PBS containing 0.5% DMSO. The mice were monitored every 12 h for 96 h after administration to calculate the survival rate. For estimation of the bacterial count in the lung tissue and histopathological analysis, the mice were infected with 30 µL (1 × 10^8 CFUs) of S. aureus cultures, and the infection was allowed to progress for 2 d. The mice were then sacrificed, and the lungs were collected, weighed, and homogenized. Then, appropriate dilutions were plated on BHI-agar plates until a single colony appeared and counted. The lung tissues of mice in each group were aseptically separated and fixed in 10% formalin. The lung tissue sections were observed under an optical microscope after conventional hematoxylin and eosin (H&E) staining.
# [3] = tested on: S. aureus USA300; assay: Growth curve assay; assay type: cell-based; settings: 200 µM orientin, growth curve in BHI
# Procedure: (§1) The broth microdilution method was performed to determine the MIC of orientin for S. aureus USA300 as previously described. Briefly, orientin was diluted two-fold serially in a 96-well plate at concentrations ranging from 2 to 1024 µg/mL, followed by inoculation with S. aureus USA300 (10^6 CFU/mL) and incubation at 37°C for 16 h. After incubation, the absorbance (OD) value at 600 nm was measured. For the growth curve experiment, the overnight bacterial culture was diluted in fresh BHI (1:100) with various concentrations of orientin (0–200 µM). S. aureus ΔsrtA was used as the control group. Each sample was cultured at 37°C, and the OD600 was measured at 1 h intervals.
# [4] = tested on: S. aureus biofilm; assay: Crystal violet biofilm assay; assay type: cell-based; settings: 200 µM orientin, compared to the WT group (untreated S. aureus)
# Procedure: After overnight culturing, S. aureus was diluted using fresh BHI by 1:100, and different concentrations of orientin ranging from 0 to 200 μM were added with shaking at 37°C to OD600 of 0.6. The bacterial culture (5 µL) was then added to BHI broth containing 1% glucose to a final volume of 200 µL and continue cultured for 18 h. Then, the medium was discarded carefully and washed three times with PBS. Then, the biofilms were stained with a 0.1% (w/v) crystal violet solution for 20 min at ambient temperature conditions. The crystal violet solution was discarded, and the wells were washed thrice with sterile PBS. After drying the plates, 95% ethanol was added into each well, and the absorbance at 570 nm was measured.
# [5] = biological target: T1, C184A (Staphylococcus aureus, UniProt Q2FV99, C184A); assay: Fluorescence quenching assay, SrtA mutant C184A; assay type: binding, S. aureus USA300
# T1 construct: 6xHis (N); made in house; host or cells: E. coli BL21(DE3), pET28a
# Procedure: (§2) The sequence of srtA from S. aureus USA300 was retrieved from the GenBank database. The srtA gene lacking the transmembrane domain (N1–59) was amplified using PCR. The PCR product was then digested and cloned in the BamHI/XhoI restriction sites of the pET28a vector, yielding pET28a-srtA. The site-directed mutagenesis of T93A-SrtA, E105A-SrtA, and C184A-SrtA was conducted using pET28a-srtA using a Multi-Site Mutagenesis Kit (Transgen, Beijing, China). The expression vector was then transformed into the BL21(DE3) expression host, and the bacteria were cultured in BHI medium supplemented with kanamycin (50 µg/mL) at 37°C. In addition, isopropyl-β-D-thiogalactoside (1 mM) was used to induce recombinant SrtA for 4 h at 16°C. Whole-cell lysates of bacteria were prepared through ultrasonic crushing. Recombinant SrtAΔN59 or its mutants were purified using the 6 × His/Ni-NTA system refer to a previous study.
# (§3) The binding constants (KA) of orientin to SrtA were determined using the fluorescence quenching assay. The spectra were recorded in the wavelength interval of 280–400 nm. The protocols used to perform the measurements have previously been described [[31–33]].
# [6] = tested on: D170A; assay: Fluorescence quenching assay, SrtA mutant D170A; assay type: binding, S. aureus USA300
# [7] = biological target: T2, SrtA (Staphylococcus aureus, UniProt Q2FV99); assay: FRET assay of SrtA inhibition (cleavage of Abz-LPATG-Dap(Dnp)-NH2); assay type: biochemical, S. aureus USA300
# T2 construct: 6xHis (N); made in house; host or cells: E. coli BL21(DE3), pET28a
# Procedure: Fluorescence resonance energy transfer (FRET) was detected the activity of orientin against SrtA, as previously described. The reaction mixture (300 µL) consisted of the reaction buffer (50 mM Tris-HCl, 5 mM CaCl2, 150 mM NaCl, pH 7.5), 4 µM purified SrtA, and various concentrations of orientin (0–200 µM). The sample was incubated at 37°C for 1 h, followed by the addition of substrate peptide (10 μM). After incubation for another hour at 37°C, the fluorescence intensity value was detected at the excitation and emission wavelengths of 350 nm and 495 nm, respectively.
# [8] = biological target: T3, E105A (Staphylococcus aureus, UniProt Q2FV99, E105A); assay: Fluorescence quenching assay, SrtA mutant E105A; assay type: binding, S. aureus USA300
# T3 construct: 6xHis (N); made in house; host or cells: E. coli BL21(DE3), pET28a
# Procedure: as §2, §3
# [9] = tested on: S. aureus USA300; assay: Broth microdilution MIC; assay type: cell-based; settings: Staphylococcus aureus, USA300, 16 h
# Procedure: as §1
# [10] = biological target: T2, SrtA; assay: Reversible inhibition assay of SrtA; assay type: biochemical, S. aureus USA300; settings: SrtA incubated with 10-fold IC50 of orientin, then diluted
# Procedure: The 10-fold IC50 concentration of orientin was incubated with 100 µL of SrtA (150 µM) for 1 h at 37°C, followed by the addition of 9.9 mL reaction buffer. Then, 190 µL of the mixture was added to each well, and substrate peptide (10 μL) was added until a final concentration of 10 μM was achieved. A multifunctional microplate reader was used to record the fluorescence intensity at 350 nm for excitation and 495 nm for emission.
# [11] = tested on: expression of SrtA; assay: Western blot analysis of SrtA expression; assay type: cell-based, S. aureus; settings: orientin 0, 25, 50, 100 or 200 µM
# Procedure: An equal amount of protein extract was separated using SDS-PAGE, followed by transfer to the polyvinylidene difluoride (PVDF) membrane (GE Healthcare, UK). The membrane was incubated in 5% BSA overnight at 4°C. After washing with TBST (TBS + 1‰ Tween 20), the membrane was incubated with rabbit anti-SrtA polyclonal antibody (1:3000) at room temperature. After incubation for 2 h, the membrane was washed thrice and incubated with HRP-conjugated goat anti-rabbit IgG (diluted 1:10,000 in TBST) for 2 h. After washing thrice, the membrane was incubated with Super ECL Plus (US EVERBRIGHT, Suzhou, China) and visualized in an ECL detection system (GE Healthcare, UK). The cytoplasmic protein ClpP was treated in the same way as an internal control. Band quantification was performed using the software ImageQuant TL.
# [12] = tested on: S. aureus USA300; assay: Adherence of S. aureus to immobilized fibrinogen; assay type: cell-based; settings: WT S. aureus treated with 200 µM orientin
# Procedure: The S. aureus USA300 was grown in BHI broth for 12 h and then diluted (1:100) in fresh BHI containing different concentrations of orientin, then continued to culture until an OD600 reached 0.5. The ∆srtA mutant was cultured under the same conditions as a positive control. Subsequently, the bacterial culture was added to a 96-well plate previously coated with bovine fibrinogen (20 µg/mL). Then, the sample was incubated for 2 h at 37°C, and 25% (v/v) formaldehyde was added to fix the adherent bacterial cells for 30 min after discarding the suspension. The formaldehyde was removed, and the plate was washed twice with PBS, following which, crystal violet was added to stain the cells for 20 min. The wells were gently washed with PBS and dried, and the OD value at 570 nm was measured.
# [13] = biological target: T4, WT-SrtA (Staphylococcus aureus, UniProt Q2FV99); assay: Fluorescence quenching assay, WT-SrtA; assay type: binding, S. aureus USA300
# T4 construct: 6xHis (N); made in house; host or cells: E. coli BL21(DE3), pET28a
# Procedure: as §2, §3
# [14] = tested on: Staphylococcal protein A (SpA) anchoring to the cell wall; assay: FITC-IgG binding to Staphylococcal protein A (SpA); assay type: cell-based, S. aureus; settings: 200 µM orientin, compared to the WT group
# Procedure: Overnight culture of S. aureus and S. aureus ΔsrtA was diluted 1:1000 in TSB medium, and different concentrations of orientin (0–200 µM) were added to the culture with shaking at 37°C until the logarithmic growth phase. The bacteria collected by centrifugation were washed thrice with PBS, after which the bacterial precipitate was resuspended with 50 µL of 1:200 diluted FITC-labeled rabbit IgG (Solarbio, Beijing, China). Then, the bacterial precipitate was incubated at ambient temperature for 30 min, and the harvested bacteria were rinsed thrice by PBS. Then, the bacteria were resuspended in 100 µL PBS and added to a black 96-well plate. The Multimode Microplate Reader (Tecan, Spark 20 M) was used to measure the fluorescence intensity at 490 nm for excitation and 520 nm for emission.
compound,measurement,setting,value
O=c1cc(-c2ccc(O)c(O)c2)oc2c([C@@H]3O[C@H](CO)[C@@H](O)[C@H](O)[C@H]3O)c(O)cc(O)c12 [orientin],ability of S. aureus to invade A549 cells,[1],decreased significantly
same,number of viable S. aureus in the lung tissue,"[2]; 100 mg/kg orientin, 2 d after infection, vs untreated group, P < 0.001",significantly reduced
same,lung histopathology,"[2]; 100 mg/kg orientin, H&E staining",inflammatory symptoms were significantly reduced
same,survival rate,"[2]; lethal dose of S. aureus intranasal, 100 mg/kg orientin intraperitoneally at intervals of 12 h, within 72 h",60%
same,effect on S. aureus growth,[3],little inhibitory effect
same,biofilm biomass,[4],31.90 ± 0.25%
same,Kd,[5],32.1 µM
same,KA,[6],5.37* 1 × 10^4 l/mol
same,IC50,[7],50.4 ± 0.51 µM
same,Kd,[8],23.5 µM
same,MIC,[9],> 512 µg/mL
same,reversibility of SrtA inhibition,[10],reversible inhibitor
same,activity of SrtA recovered (relative activity),[10]; untreated SrtA = 100% activity,84.77 ± 1.28% and 84.77%
same,effect on the expression of SrtA,[11],not to affect the expression of SrtA
same,adhesion of S. aureus to fibrinogen,[12],33.10 ± 1.41%
same,Kd,[13],14 µM
same,relative activity (fluorescence of FITC-IgG bound to SpA),[14],37.32 ± 1.84%
